Experimental data: patent US20060111287A1, “Acetylated protein” (priority 2002, published 2006)
Entries after “also recorded” stand apart in the source; their conditions may differ. Read-outs that look alike come from different tables or passages of the source.

Key:
3T3 cells = experiment: HMGB1 acetylation pattern by 2D gel electrophoresis and anti-HMGB1 blot after deacetylase inhibitors; type: cell-based, mouse; details: for hyperacetylation of HMGB1: cell lines with low complexity of HMGB1 acetylation (3T3 mouse fibroblasts, HeLa cells, HEK cells)
Experimental: (C) Most cell lines contain 2 isoforms of HMGB1, and the protein can be hyperacetylated with TSA treatment. 3T3 cells were incubated for 6 hours in DMEM, or DMEM supplemented with 10 ng/ml TSA, then collected and lysed.
About 50 μg of purified HMGB1 or about 250 μg of total cellular protein were added to 350 μl of rehydration buffer (RB), containing 8 M urea, 2% CHAPS, 20 mM dithioerythritol (DTE), 0.8% IPG buffer (carrier ampholytes, pH 3-10 non-linear or pH 4-7 linear). Samples were applied on 18 cm polyacrylamide gel strips (pH range: 3-10 NL, or pH 4-7 L). Isoelectrophocusing (IEF) was performed in IPGphor (Pharmacia Biotech). IEF was stopped at 75000-90000 VoltHours. Second dimension runs were performed using a Protean II apparatus (Bio-Rad). After IEF, strips were soaked first in equilibration buffer (EB: 6 M urea, 3% SDS, 375 mM Tris pH 8.6, 30% glycerol, 2% DTE), then in EB containing 3% iodoacetamide (LAA) and traces of bromophenol blue (BBP). Strips were then applied onto 10%-12% polyacrylamide gels. Gels were run at 90 V for about 16 hours, and were then either silver stained or transferred onto nitrocellulose membranes (ECL, Amersham) in 25 mM Tris pH 7.5, 0.192 M glycine, 20% methanol.

U937.12 cells [1] = experiment: HMGB1 relocation from nucleus to vesicles in LPS-challenged U937.12 cells (immunofluorescence); type: cell-based
Experimental: Fibroblasts and HeLa cells were cultured in Dulbecco's modified Eagle's medium (DMEM) supplemented with 10% fetal bovine serum (FBS, from Gibco), 100 IU/ml of penicillin and 100 μg/ml streptomycin, in 5% CO2 humidified atmosphere. HeLa cells and 3134 mouse fibroblasts were transfected by calcium phosphate co-precipitation. To express fluorescent proteins, 3×10^5 cells were plated in 6 cm dishes and were transiently transfected with 8 μg of the appropriate plasmid. Cells were observed 36 hours after transfection. […] About 24 hours after transfection, 3134 fibroblasts were treated for 3 hours with 10 ng/ml trichostatin A (TSA, Sigma) before fixing and imaging. Subclone 12[−] of U937 promoyelocitic cells, kindly provided by M. Alfano and G. Poli (HSR, Milano), was grown in RPMI medium (Gibco) supplemented with 10% FCS, L-glutamine, 100 U/ml penicillin 100 μg/ml streptomycin, exposed for 3 days to 0.1 μM vitamin D3 (Roche) to promote CD14 expression, and stimulated with 100 ng/ml LPS (Sigma catalogue #L4391) or with 10 ng/ml TSA for 3 hours. For the experiments with kinase inhibitors, cells were exposed to 1 μM U0126, 10 μM SB203580 or 30 μM SP600125 (all from Calbiochem) at the same time as LPS, and lasting for 3 hours. Primary human monocytes, purified from peripheral blood (a kind gift from M. Iannacone, HSR), were maintained in RPMI medium supplemented as described above, and were activated with 100 ng/ml LPS.
Cell cultured in LabTek II chambers (Nalgene) were directly fixed in 3.7% paraformaldehyde (PFA) in PHEM buffer (36.8 g/l PIPES, 13 g/l HEPES, 7.6 g/l EGTA, 1.99 g/l MgSO4, buffered to pH 7.0 with KOH) for 10 minutes at room temperature. After fixation, cells were washed with PBS and incubated for 3 minutes at 4° C. with HEPES-based permeabilization buffer containing 300 mM sucrose and 0.2% Triton X-100. Fifteen minutes of incubation in blocking solution (BlS, 0.2% BSA in PBS) followed. Primary antibodies were then diluted in BIS to the suitable final concentration and incubation was prolonged for 1 hour at room temperature. After 3 rinses with BlS, cells were incubated with secondary antibodies in BIS for one hour, washed three times with BlS, and then incubated with PBS containing 0.5 μg/ml Hoechst 33342. The polyclonal rabbit anti-HMGB1 was purchased from BD PharMingen (Torrey Pines, Calif.), and used at 1:1600 dilution. Goat polyclonal antibodies against rabbit IgG (H+L) conjugated to Alexa Fluor 594 (working dilution 1:1000) were purchased from Molecular Probes (Eugene, Oreg., USA).
The secretion of TNF-α, IL-1, IL-8, and PGE2 by LPS-stimulated monocytes can be blocked by inhibiting ERK phosphorylation (Scherle et al., 1998). […] U937.12 cells were exposed to 200 ng/ml LPS in the presence of 1 μM U0126 (a specific inhibitor of ERK phosphorylation), 30 μM SP600125 (a specific inhibitor of Jnk kinases) or 10 μM SB203580 (a specific inhibitor of the p38 kinases). Control cultures were not exposed to LPS, or exposed to LPS but no inhibitors.

3134 mouse fibroblasts = experiment: HMGB1-GFP relocation to the cytoplasm in fibroblasts after TSA; type: cell-based; details: 10 ng/ml TSA for 3 hours
Experimental: (§1) Fibroblasts and HeLa cells were cultured in Dulbecco's modified Eagle's medium (DMEM) supplemented with 10% fetal bovine serum (FBS, from Gibco), 100 IU/ml of penicillin and 100 μg/ml streptomycin, in 5% CO2 humidified atmosphere. HeLa cells and 3134 mouse fibroblasts were transfected by calcium phosphate co-precipitation. To express fluorescent proteins, 3×10^5 cells were plated in 6 cm dishes and were transiently transfected with 8 μg of the appropriate plasmid. Cells were observed 36 hours after transfection. The average amount of HMGB1-GFP in the cell population was between 1 and 3% of HMGB1 (as measured by immunoblotting with anti-HMGB1 antibodies). About 24 hours after transfection, 3134 fibroblasts were treated for 3 hours with 10 ng/ml trichostatin A (TSA, Sigma) before fixing and imaging. Subclone 12[−] of U937 promoyelocitic cells, kindly provided by M. Alfano and G. Poli (HSR, Milano), was grown in RPMI medium (Gibco) supplemented with 10% FCS, L-glutamine, 100 U/ml penicillin 100 μg/ml streptomycin, exposed for 3 days to 0.1 μM vitamin D3 (Roche) to promote CD14 expression, and stimulated with 100 ng/ml LPS (Sigma catalogue #L4391) or with 10 ng/ml TSA for 3 hours. For the experiments with kinase inhibitors, cells were exposed to 1 μM U0126, 10 μM SB203580 or 30 μM SP600125 (all from Calbiochem) at the same time as LPS, and lasting for 3 hours. […]

U937.12 cells [2] = experiment: HMGB1 relocation in U937.12 cells treated with TSA without LPS (immunofluorescence); type: cell-based; details: 10 ng/ml TSA for 3 hours, no LPS
Experimental: as §1

human monocytes = experiment: HMGB1 translocation to cytoplasmic vesicles in LPS-activated primary monocytes; type: cell-based; details: cycloheximide; time scale about 16-20 hours
Experimental: as §1, with “The average amount of HMGB1-GFP in the cell population was between 1 and 3% of HMGB1 (as measured by immunoblotting with anti-HMGB1 antibodies).” left out

[3] = tested on: HMGB1 transfer between human and mouse nuclei; experiment: Heterokaryon assay: HMGB1 transfer from human to mouse nuclei; type: cell-based; details: for HMGB1 transfer between human and mouse nuclei in heterokaryons: 150 nM leptomycin B, 4 hours at 37° C. with cycloheximide
Source text: (A) Heterokaryons were formed by fusing HMGB1-expressing HeLa cells (human) and Hmgb1−/− mouse embryonic fibroblasts. Human cytokeratin and HMGB1 were stained red and green, respectively, with specific antibodies; nuclei were stained blue with DAPI (or Hoechst). Cells with human cytokeratin staining and two nuclei, one of which with bright DAPI-positive heterochromatic spots characteristic of mouse cells, were considered heterokaryons.
Heterokaryons were produced and scored as in panel A; 150 heterokaryons were evaluated for HMGB1 transfer into recipient mouse nuclei for each of the 2 classes (leptomycin and control). The 50% level is equivalent to complete equilibration.
HeLa cells were plated on glass coverslips in a 6-well dish (100 000 cells/dish). After 16 hours, 200 000 Hmgb1−/− mouse fibroblasts were plated on the same coverslips. Following a 3-hour incubation in the presence of 100 μg/ml cycloheximide, the cells were washed with PBS and treated with 100 μl of prewarmed 50% PEG-6000 in PBS for 1 min. After 3 washes with PBS, the cells were incubated with DMEM containing 100 μg/ml cycloheximide for 4 hours, and then fixed with 4% paraformaldehyde. Immunofluorescence was performed using anti-human cytokeratin (Santa Cruz) and anti-HMGB1 antibodies, and chromatin was visualized by DAPI staining. When indicated, 150 nM leptomycin B (a kind gift of Barbara Wolff, Novartis, Vienna) was added to the medium together with cycloheximide.

CRM1 exportin = CRM1 exportin (Homo sapiens, UniProt O14980); experiment: Pull down assay with labeled CRM1; details: 0.4 μM (400 nM) leptomycin B in the binding buffer
Sequence of CRM1 exportin (O14980 whole entry): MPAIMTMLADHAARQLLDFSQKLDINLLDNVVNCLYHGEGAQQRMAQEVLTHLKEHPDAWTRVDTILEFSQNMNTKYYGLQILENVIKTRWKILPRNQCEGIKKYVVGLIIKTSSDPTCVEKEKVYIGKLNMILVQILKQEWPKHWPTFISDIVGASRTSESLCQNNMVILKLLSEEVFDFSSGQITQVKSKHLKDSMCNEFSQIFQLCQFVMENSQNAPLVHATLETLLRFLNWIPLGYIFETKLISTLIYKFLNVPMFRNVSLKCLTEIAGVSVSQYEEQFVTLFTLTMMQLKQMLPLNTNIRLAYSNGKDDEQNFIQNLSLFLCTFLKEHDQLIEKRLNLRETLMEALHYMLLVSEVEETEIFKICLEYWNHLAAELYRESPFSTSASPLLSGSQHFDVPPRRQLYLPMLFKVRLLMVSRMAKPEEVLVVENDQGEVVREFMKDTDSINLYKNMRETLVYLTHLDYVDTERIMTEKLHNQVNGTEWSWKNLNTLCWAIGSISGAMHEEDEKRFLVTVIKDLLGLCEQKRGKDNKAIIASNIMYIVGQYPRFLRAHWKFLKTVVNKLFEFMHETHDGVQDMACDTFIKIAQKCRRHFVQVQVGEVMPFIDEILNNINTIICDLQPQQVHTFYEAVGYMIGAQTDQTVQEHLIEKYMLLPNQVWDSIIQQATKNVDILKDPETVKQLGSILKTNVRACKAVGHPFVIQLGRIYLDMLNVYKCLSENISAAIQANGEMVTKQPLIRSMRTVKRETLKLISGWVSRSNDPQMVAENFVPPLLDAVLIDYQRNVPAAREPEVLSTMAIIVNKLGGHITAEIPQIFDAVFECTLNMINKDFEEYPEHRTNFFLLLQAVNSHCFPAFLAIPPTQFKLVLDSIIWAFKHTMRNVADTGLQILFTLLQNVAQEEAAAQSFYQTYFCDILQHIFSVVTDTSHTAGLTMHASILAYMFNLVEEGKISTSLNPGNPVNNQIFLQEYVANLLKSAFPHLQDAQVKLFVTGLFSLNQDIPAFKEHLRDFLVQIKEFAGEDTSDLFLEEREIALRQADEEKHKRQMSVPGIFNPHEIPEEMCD
Source text: Labeled CRM1 protein was mixed with beads bearing GST-NS2 immobilized onto Glutathione Sepharose or BSA, tailless HMGB1 (boxA+B) or individual boxes covalently linked to Sepharose. Aliquots representing the input material (In), the fourth wash (W4), the material remaining bound to beads after 5 washes (bound, B), and the unbound material (output, O) were electrophoresed and autoradiographed.
CRM1 protein was in vitro transcribed-translated with the TnT Coupled Reticulocyte Lysate System (Promega) following the manifacturer's protocol, using pSGCRM1 plasmid as template. Seven μl of freshly made [^35S]-Met labeled CRM1 were incubated in 15 μl RAN Buffer (50 mM Tris-HCl pH 7.5, 200 mM NaCl, 2 mM MgCl2, 10% glycerol), 5 μl of 6×CRM1 buffer (20 mM HEPES-KOH pH 7.5, 80 mM CH3COOK, 4 mM Mg (CH3COO)2, 250 mM sucrose, 2.5 mM DTT), 1 mg/ml BSA, 400 nM Leptomycin B where indicated, and approximately 10 μl of beads bearing immobilized GST-NS2, BSA, recombinant tailless HMGB1 (HMGB1ΔC, Muller et al., 2001b), boxA, or boxB. GST-NS2 was coupled to Gluthatione Sepharose (Amersham), the other proteins were covalently cross-linked to Activated Sepharose-CH (Amersham). The incubation was for one hour at 4° C. on a rotating wheel. The beads were pelleted by centrifugation, supernatants were dried in Savant. […]

C[C@@H]1NC(=O)[C@H]2CCCN2C(=O)[C@H](CCCCCC(=O)[C@@H]2CO2)NC(=O)[C@@H](C)NC1=O [HC-toxin]
hyperacetylation of HMGB1 (3T3 cells): hyperacetylation could be obtained

C[S+]([O-])c1ccc(-c2nc(-c3ccncc3)c(-c3ccc(F)cc3)[nH]2)cc1 (centres unmarked) [SB203580]
HMGB1 relocation to vesicles after LPS (U937.12 cells [1]; 10 μM SB203580 together with LPS, 3 hours): has no effect; also recorded: substantial

CC(/C=C/C(=O)NO)=C\[C@@H](C)C(=O)c1ccc(N(C)C)cc1 [TSA, trichostatin A]
relocation of HMGB1-GFP to the cytoplasm (3134 mouse fibroblasts): causes a significant relocation of HMGB1-GFP to the cytoplasm; also recorded: sufficient to relocate a significant amount of HMGB1 to the cytoplasm | HMGB1 isoform spots on 2D gel (hyperacetylation) (3T3 cells; 3T3 cells, 10 ng/ml TSA, 6 hours, control 2 spots): several HMGB1 spots appeared | hyperacetylation of HMGB1 (3T3 cells): hyperacetylation could be obtained | cytoplasmic expansion (U937.12 cells [2]): do not show cytoplasmic expansion | relocation of HMGB1 to cytoplasmic vesicles (U937.12 cells [2]): a fraction of HMGB1 is relocalized to cytoplasmic vesicles; also recorded: a fraction of HMGB1 started to shift to cytoplasmic vesicles

N#CC(=C(/N)Sc1ccccc1N)/C(C#N)=C(\N)Sc1ccccc1N [U0126]
HMGB1 relocation to vesicles after LPS (U937.12 cells [1]): blocks it completely; also recorded: inhibition of HMGB1 translocation; also recorded: almost completely blocked | HMGB1 translocation after LPS stimulation after removal of the inhibitor (U937.12 cells [1]): restored

C[C@@H]1C[C@@H]([C@H](O)CC2CC(=O)NC(=O)C2)C(=O)[C@@H](C)C1 [cycloheximide]
HMGB1 translocation to cytoplasmic vesicles after LPS (human monocytes): not inhibited | HMGB1 translocation after LPS (U937.12 cells [1]; 10 μM cycloheximide starting 20 minutes prior to LPS addition): does not block HMGB1 translocation | HMGB1 translocation to vesicles when LPS is added (U937.12 cells [1]; 10 μg/ml cycloheximide): still translocate HMGB1 to vesicles

CCC(=C/[C@H](C)C/C=C/C(C)=C/[C@@H](C)C(=O)[C@@H](C)[C@H](O)[C@@H](C)C/C(C)=C/C(=O)O)/C=C/[C@@H]1OC(=O)C=C[C@@H]1C [leptomycin B]
HMGB1 transfer between human and mouse nuclei in heterokaryons ([3]; listed as Leptomycin B): substantially reduces, but does not abolish | HMGB1 transfer between human and mouse nuclei in heterokaryons ([3]; listed as leptomycin): strongly reduced | HMGB1 migrated to the mouse nucleus ([3]; vast majority of leptomycin-treated heterokaryons, after 4 hours, 50% level = complete equilibration): less than 5% | binding of labeled CRM1 to GST-NS2 and the HMG boxes (BoxA+B) (CRM1 exportin): did not bind | binding of labeled CRM1 to GST-NS2 and the HMG boxes (BoxA+B) (CRM1 exportin; listed as leptomicin B): prevents binding of CRM1 | HMGB1 relocation to vesicles after LPS (U937.12 cells [1]; 150 nM leptomycin together with LPS, 3 hours): partially blocked | HMGB1 relocation to vesicles after LPS (U937.12 cells [1]; 150 nM leptomycin together with LPS, 3 hours, listed as leptomycin): blocks HMGB1 relocation almost completely

CCCC(=O)[O-].[Na+] [sodium butyrate]
hyperacetylation of HMGB1 (3T3 cells): hyperacetylation could be obtained
